In brackets after ≈: the same amount, converted by molar mass. Entries after “also recorded” stand apart in the source; their conditions may differ.
System: Vero cells
Experiment: MTT assay, antiproliferative activity against Vero cells
Format: cell-based, African green monkey
Conditions: Chlorocebus sabaeus, 72 h, triplicate, mean ± SD, normal cells
Method: (§1) The antiproliferative activity was evaluated by MTT (3-(4,5-dimethylthiazol-2-yl)-2,5-diphenyl tetrazolium bromide) assay. Four cancer cell lines; human cervical carcinoma (HeLa), human colon carcinoma (HT29 and HCT116) and human breast carcinoma (MCF-7), along with African green monkey kidney cells (Vero cells) were seeded in 96-well plates (8000 cells/well) and cultured for 24 h, followed by being treated with the selected compounds at 100 µg/mL for 72 h. Following this, 10 μL of MTT reagent (5 mg/mL in phosphate buffer solution (PBS)) was added to each well and further incubated at 37 °C for 2 h. Then, 100 μL of DMSO (dimethyl sulfoxide) was used to dissolve the formazan dye. Finally, the absorbance of the solution was measured using a microplate reader (Bio-Rad Laboratories, Hercules, CA) at wavelengths of 550 and 655 nm. The absorbance at 655 nm was used as a reference wavelength. […] Cisplatin was used as the positive control drug.

Row | Structure (SMILES) | IC50 [µg/mL]
1 | C[C@H]1CCC[C@H](Cc2cc(O)cc(O)c2)O1 [Compound 17, (2′R,6′S)-5-((-6-methyltetrahydro-2H-pyran-2-yl)methyl)benzene-1,3-diol] | > 100
2 | C[C@H]1CCC[C@H](C[C@H]2Cc3cc(O)cc(O)c3C(=O)O2)O1 [Compound 18, asperentin] | 8.77 ± 0.91 (≈ 30 µM)
3 | COc1cc(O)cc2c1C(=O)O[C@@H](C[C@H]1CCC[C@H](C)O1)C2 [Compound 19, asperentin-8-O-methylether] | > 100
4 | COc1cc(O)c2c(c1)C[C@H](C[C@H]1CCC[C@H](C)O1)OC2=O [Compound 20, asperentin-6-O-methylether] | > 100
5 | C[C@@H]1O[C@@H](C[C@H]2Cc3cc(O)cc(O)c3C(=O)O2)CC[C@@H]1O [Compound 21, 5′-hydroxyasperentin] | > 100
6 | C[C@H]1C[C@@H](O)C[C@H](C[C@H]2Cc3cc(O)cc(O)c3C(=O)O2)O1 [Compound 22, 4′-hydroxyasperentin] | > 100

System: HT29
Experiment: MTT assay, antiproliferative activity against HT29
Format: cell-based, human
Conditions: Homo sapiens, HT-29; MTT, 72 h, triplicate, mean ± SD
Method: as §1

Row | Structure (SMILES) | IC50 [µg/mL]
7 | COc1cc(O)cc2c1C(=O)O[C@@H](C[C@H]1CCC[C@H](C)O1)C2 [Compound 19, asperentin-8-O-methylether] | > 100
8 | C[C@@H]1O[C@@H](C[C@H]2Cc3cc(O)cc(O)c3C(=O)O2)CC[C@@H]1O [Compound 21, 5′-hydroxyasperentin] | > 100

Now from value to molecule:

Row | IC50 [µg/mL] | Structure (SMILES)
9 | 19.5 ± 0.77 (≈ 87.7 µM) | C[C@H]1CCC[C@H](Cc2cc(O)cc(O)c2)O1 [Compound 17, (2′R,6′S)-5-((-6-methyltetrahydro-2H-pyran-2-yl)methyl)benzene-1,3-diol]
10 | 4.51 ± 0.13 (≈ 15.4 µM) | C[C@H]1CCC[C@H](C[C@H]2Cc3cc(O)cc(O)c3C(=O)O2)O1 [Compound 18, asperentin]
11 | 33.3 ± 4.42 (≈ 109 µM) | COc1cc(O)c2c(c1)C[C@H](C[C@H]1CCC[C@H](C)O1)OC2=O [Compound 20, asperentin-6-O-methylether]
12 | > 100 | C[C@H]1C[C@@H](O)C[C@H](C[C@H]2Cc3cc(O)cc(O)c3C(=O)O2)O1 [Compound 22, 4′-hydroxyasperentin]

Same assay, conditions: MTT, 72 h, triplicate, mean ± SD

Row | Structure (SMILES) | Antiproliferative activity, IC50 ± SD, HT29 [µg/mL]
13 | N.N.[Cl][Pt][Cl] [Cisplatin, reference compound] | 1.59 ± 0.07

System: MCF-7
Experiment: MTT assay, antiproliferative activity against MCF-7
Format: cell-based, human
Conditions: 72 h, triplicate, mean ± SD
Method: as §1

Row | Structure (SMILES) | Antiproliferative activity, IC50 ± SD, MCF-7 [µg/mL]
14 | N.N.[Cl][Pt][Cl] [Cisplatin, reference compound] | 3.13 ± 0.26

Same assay, conditions: Homo sapiens, MCF7, 72 h, triplicate, mean ± SD

Row | Structure (SMILES) | IC50 [µg/mL]
15 | COc1cc(O)cc2c1C(=O)O[C@@H](C[C@H]1CCC[C@H](C)O1)C2 [Compound 19, asperentin-8-O-methylether] | > 100
16 | C[C@@H]1O[C@@H](C[C@H]2Cc3cc(O)cc(O)c3C(=O)O2)CC[C@@H]1O [Compound 21, 5′-hydroxyasperentin] | > 100

Next, values leading:

Row | IC50 [µg/mL] | Structure (SMILES)
17 | 50.2 ± 3.85 (≈ 226 µM) | C[C@H]1CCC[C@H](Cc2cc(O)cc(O)c2)O1 [Compound 17, (2′R,6′S)-5-((-6-methyltetrahydro-2H-pyran-2-yl)methyl)benzene-1,3-diol]
18 | 10.1 ± 0.52 (≈ 34.5 µM) | C[C@H]1CCC[C@H](C[C@H]2Cc3cc(O)cc(O)c3C(=O)O2)O1 [Compound 18, asperentin]
19 | 11.7 ± 0.82 (≈ 38.2 µM) | COc1cc(O)c2c(c1)C[C@H](C[C@H]1CCC[C@H](C)O1)OC2=O [Compound 20, asperentin-6-O-methylether]
20 | > 100 | C[C@H]1C[C@@H](O)C[C@H](C[C@H]2Cc3cc(O)cc(O)c3C(=O)O2)O1 [Compound 22, 4′-hydroxyasperentin]

System: cancer cell lines (HCT116, HT29, MCF-7 and HeLa)
Experiment: MTT assay, all four cancer cell lines together
Format: cell-based, human
Conditions: not given
Method: as §1

Row | Structure (SMILES) | antiproliferative activity in words, all cancer cells
21 | C[C@H]1CCC[C@H](Cc2cc(O)cc(O)c2)O1 [Compound 17, (2′R,6′S)-5-((-6-methyltetrahydro-2H-pyran-2-yl)methyl)benzene-1,3-diol] | moderate anti-proliferation
22 | C[C@H]1CCC[C@H](C[C@H]2Cc3cc(O)cc(O)c3C(=O)O2)O1 [Compound 18, asperentin] | significantly toxic
23 | COc1cc(O)c2c(c1)C[C@H](C[C@H]1CCC[C@H](C)O1)OC2=O [Compound 20, asperentin-6-O-methylether] | significantly toxic; also recorded: moderate anti-proliferation

System: HCT116, HT29, MCF-7, HeLa and Vero cells
Experiment: MTT assay, all cancer cells and normal cells together
Format: cell-based
Conditions: MTT assay
Method: as §1

Row | Structure (SMILES) | antiproliferative activity in words, all cancer cells and normal cells
24 | C[C@H]1CCC[C@H](C[C@H]2Cc3cc(O)cc(O)c3C(=O)O2)O1 [Compound 18, asperentin] | strong broad spectrum

Same assay, conditions: range over HCT116, HT29, MCF-7, HeLa and Vero cells; read-out: IC50 range against all cancer cells and normal cells

Row | Structure (SMILES) | IC50 [µg/mL]
25 | C[C@H]1CCC[C@H](C[C@H]2Cc3cc(O)cc(O)c3C(=O)O2)O1 [Compound 18, asperentin] | 2.09 to 10.1 (≈ 7.15 to 34.5 µM)

System: HCT116
Experiment: MTT assay, antiproliferative activity against HCT116
Format: cell-based, human
Conditions: Homo sapiens, HCT-116; MTT, 72 h, triplicate, mean ± SD
Method: as §1

Row | Structure (SMILES) | IC50 [µg/mL]
26 | COc1cc(O)cc2c1C(=O)O[C@@H](C[C@H]1CCC[C@H](C)O1)C2 [Compound 19, asperentin-8-O-methylether] | 66.5 ± 7.68 (≈ 217 µM)
27 | C[C@@H]1O[C@@H](C[C@H]2Cc3cc(O)cc(O)c3C(=O)O2)CC[C@@H]1O [Compound 21, 5′-hydroxyasperentin] | > 100

The remaining lines, values ahead:

Row | IC50 [µg/mL] | Structure (SMILES)
28 | 17.5 ± 1.29 (≈ 78.7 µM) | C[C@H]1CCC[C@H](Cc2cc(O)cc(O)c2)O1 [Compound 17, (2′R,6′S)-5-((-6-methyltetrahydro-2H-pyran-2-yl)methyl)benzene-1,3-diol]
29 | 2.42 ± 0.2 (≈ 8.28 µM) | C[C@H]1CCC[C@H](C[C@H]2Cc3cc(O)cc(O)c3C(=O)O2)O1 [Compound 18, asperentin]
30 | 8.69 ± 0.69 (≈ 28.4 µM) | COc1cc(O)c2c(c1)C[C@H](C[C@H]1CCC[C@H](C)O1)OC2=O [Compound 20, asperentin-6-O-methylether]
31 | > 100 | C[C@H]1C[C@@H](O)C[C@H](C[C@H]2Cc3cc(O)cc(O)c3C(=O)O2)O1 [Compound 22, 4′-hydroxyasperentin]

System: HeLa
Experiment: MTT assay, antiproliferative activity against HeLa
Format: cell-based, human
Conditions: Homo sapiens, HeLa; MTT, 72 h, triplicate, mean ± SD
Method: as §1

Row | Structure (SMILES) | IC50 [µg/mL]
32 | COc1cc(O)cc2c1C(=O)O[C@@H](C[C@H]1CCC[C@H](C)O1)C2 [Compound 19, asperentin-8-O-methylether] | > 100
33 | C[C@@H]1O[C@@H](C[C@H]2Cc3cc(O)cc(O)c3C(=O)O2)CC[C@@H]1O [Compound 21, 5′-hydroxyasperentin] | > 100

Further lines, results first:

Row | IC50 [µg/mL] | Structure (SMILES)
34 | 13.5 ± 1.15 (≈ 60.9 µM) | C[C@H]1CCC[C@H](Cc2cc(O)cc(O)c2)O1 [Compound 17, (2′R,6′S)-5-((-6-methyltetrahydro-2H-pyran-2-yl)methyl)benzene-1,3-diol]
35 | 2.09 ± 0.16 (≈ 7.15 µM) | C[C@H]1CCC[C@H](C[C@H]2Cc3cc(O)cc(O)c3C(=O)O2)O1 [Compound 18, asperentin]
36 | 4.98 ± 0.4 (≈ 16.3 µM) | COc1cc(O)c2c(c1)C[C@H](C[C@H]1CCC[C@H](C)O1)OC2=O [Compound 20, asperentin-6-O-methylether]
37 | > 100 | C[C@H]1C[C@@H](O)C[C@H](C[C@H]2Cc3cc(O)cc(O)c3C(=O)O2)O1 [Compound 22, 4′-hydroxyasperentin]

Same assay, conditions: MTT, 72 h, triplicate, mean ± SD

Row | Structure (SMILES) | Antiproliferative activity, IC50 ± SD, HeLa [µg/mL]
38 | N.N.[Cl][Pt][Cl] [Cisplatin, reference compound] | 1.93 ± 0.04

Source: article PMC10770013, “Antiproliferative polyketides from fungus Xylaria cf. Longipes SWUF08-81 in different culture media” (Natural Products and Bioprospecting, 2024)
